Experiments:
[1] = test system: inward rectifier potassium current (IK1); experiment: Voltage clamp of inward rectifier IK1 in canine ventricular myocytes; assay type: cell-based; details: ranolazine up to 100 μM
Method: Myocytes were isolated by enzymatic dissociation from a wedge-shaped section of the left ventricular free wall supplied by the left circumflex coronary artery. Cells from the epicardial and midmyocardial regions of the left ventricle were used in this study.
Inward rectifier potassium current (IK), slow delayed rectifier potassium current (IKs), and rapid delayed rectifier potassium current (IKr) were recorded at 37° C. using conventional whole cell voltage clamp configuration.
IK1 was measured using an external solution containing 3 μM ouabain and 5 μM nifedipine to block the sodium-potassium pump and L-type calcium current (ICa,L), respectively. […] 5 μM nifedipine was present in the external solution when IKr was being recorded. […]
IKr was measured as the time-dependent tail current elicited at a potential of −40 mV following a short 250 ms depolarizing pulse to 30 mV. Data are presented as mean ±S.E.M. IK1 was recorded during 900 msec voltage steps applied from a holding potential of −40 mV to test potentials ranging from −100 mV to 0 mV, and was characterized as the 5 msec average of the steady state current at the end of the test pulse.
The inward rectifier, IK1, was recorded using perforated-patch voltage clamp techniques. […] Panel B plots composite data illustrating the current-voltage relations constructed from the average current measured at the end of each test pulse

anesthetized dog = experiment: QT prolongation and arrhythmia induction in anesthetized dog with AV block and phenylephrine challenge
Method: Dogs were pretreated with Atravet (0.07 mg/kg sc) and then 15 minutes later anesthetized with ketamine (5.3 mg/kg iv) and valium (0.25 mg/kg iv) followed by isoflurane (1-2%), intubated and subjected to mechanical ventilation. They were then subjected to AV block with radiofrequency ablation. A median sternotomy was performed and catheters were inserted into a femoral artery for blood pressure (BP) recording and into both femoral veins for infusion of test drugs. Bipolar electrodes were inserted into both ventricles for programmed stimulation determination of refractory periods (extrastimulus technique), as well as for evaluation of QT interval and QRS duration at various controlled basic cycle lengths (BCLs). TdP was induced by challenges of phenylephrine, which were given as bolus intravenous doses of 10, 20, 30, 40 and 50 μg/kg. After each dose, the ECG was monitored continuously to detect arrhythmias. […] Test drug effects were evaluated as per protocols below.
Data are presented as the mean ±S.E.M. Statistical comparisons were made with Student's t test. A 2-tailed probability<0.05 was taken to indicate statistical significance. In data tables, * denotes P<0.05, **P<0.01.
Group 2 (6 dogs): Five dogs received ranolazine as a 0.5 mg/kg iv load followed by a first, a second and a third continuous iv infusion of 1.0, 3.0 and 15 mg/kg/hr, respectively. One dog received ranolazine as a 1.5 mg/kg iv load followed by infusions of 15 and 30 mg/kg/hr. […] The phenylephrine challenges were then given, with all doses given at each drug infusion rate, and any arrhythmias monitor.

[2] = ranolazine 0.5 mg/kg iv load + 1.0 mg/kg/hr, BCL 300
[3] = ranolazine 0.5 mg/kg iv load + 1.0 mg/kg/hr, BCL 400
[4] = ranolazine 0.5 mg/kg iv load + 1.0 mg/kg/hr, BCL 600
[5] = ranolazine 3.0 mg/kg/hr, BCL 300
[6] = ranolazine 3.0 mg/kg/hr, BCL 400
[7] = ranolazine 3.0 mg/kg/hr, BCL 600
[8] = ranolazine 3.0 mg/kg/hr, BCL 1000
[9] = ranolazine 15 mg/kg/hr, BCL 400
[10] = ranolazine 15 mg/kg/hr, BCL 600
[11] = ranolazine 15 mg/kg/hr, BCL 1000

COc1ccccc1OCC(O)CN1CCN(CC(=O)Nc2c(C)cccc2C)CC1 (racemic) [ranolazine, N-(2,6-dimethylphenyl)-4-[2-hydroxy-3-(2-methoxyphenoxy)propyl]-1-piperazineacetamide]
Effect on IK1 [1]: no change
Effect on IK1 ([1]; listed as Ranolazine): did not alter
Induction of torsades de pointes and/or ventricular fibrillation (anesthetized dog; dog, in vivo): unable to induce any
Maximum increase of QT interval (anesthetized dog; dog, in vivo, 3 mg/kg, 30 min): about 10%
Arrhythmia occurrence (anesthetized dog; dog, in vivo, 30 min): VT 13 beats,
Mean ERP-LV + SE (anesthetized dog; [2]): 185.00 ± 8.1 ms
Mean ERP-RV + SE (anesthetized dog; [2]): 182.84 ± 6.67 ms
Mean ERP-LV + SE (anesthetized dog; [3]): 204.38 ± 11.01 ms
Mean ERP-RV + SE (anesthetized dog; [3]): 201.50 ± 6.45 ms
Mean ERP-LV + SE (anesthetized dog; [4]): 233.13 ± 12.43 ms
Mean ERP-RV + SE (anesthetized dog; [4]): 227.50 ± 8.87 ms
Mean ERP-LV + SE (anesthetized dog; ranolazine 0.5 mg/kg iv load + 1.0 mg/kg/hr, BCL 1000): 259.38 ± 18.18 ms
Outcome of the high-dose dog (anesthetized dog; ranolazine 1.5 mg/kg iv load, 15 then 30 mg/kg/hr infusion): died of pump failure
Mean ERP-LV + SE (anesthetized dog; [5]): 189.38 ± 8.32 ms
Mean ERP-RV + SE (anesthetized dog; [5]): 181.00 ± 2.32 ms
Mean ERP-LV + SE (anesthetized dog; [6]): 211.45 ± 9.2 ms
Mean ERP-RV + SE (anesthetized dog; [6]): 199.66 ± 3.75 ms
Mean ERP-LV + SE (anesthetized dog; [7]): 238.13 ± 13.25 ms
Mean ERP-RV + SE (anesthetized dog; [7]): 224.50 ± 4.83 ms
Mean ERP-LV + SE (anesthetized dog; [8]): 265.43 ± 19.42 ms
Mean ERP-RV + SE (anesthetized dog; [8]): 249.50 ± 6.19 ms
Mean ERP-RV + SE (anesthetized dog; ranolazine 15 mg/kg/hr, BCL 300): 185.00 ± 5.76 ms
Mean ERP-LV + SE (anesthetized dog; [9]): 215.00 ± 10.05 ms
Mean ERP-RV + SE (anesthetized dog; [9]): 206.50 ± 5.79 ms
Mean ERP-LV + SE (anesthetized dog; [10]): 237.50 ± 14.11 ms
Mean ERP-RV + SE (anesthetized dog; [10]): 229.50 ± 6.19 ms
Mean ERP-LV + SE (anesthetized dog; [11]): 260.43 ± 19.32 ms
Mean ERP-RV + SE (anesthetized dog; [11]): 253.16 ± 7.77 ms
Mean increase of ERP (anesthetized dog; ranolazine infusions): ≤ 10%

From US20080109040A1, “METHOD OF TREATING ARRHYTHMIAS” (priority 2002, published 2008)
